Patent publication EP3381906A1, “COMPOUNDS FOR USE AS HEPARANASE INHIBITORS” (Leadiant Biosciences SA, priority 2017, dated 2018)

How the values were obtained:
[1] = tested on: HT1080 (human fibrosarcoma); experiment: Matrigel cell invasion assay; format: cell-based; details: HT-1080, HT1080, Conc. 10 µM
Procedure: Heparanase inhibitors were then evaluated for their activity on the invasive potential of HT1080 (human fibrosarcoma) human cell lines, using the Matrigel cell invasion assay which allows to assess the cell invasion ability of malignant and normal cells.
Invasion assay was performed using BioCoat cell culture inserts (BioCoat 8.0µm PET Membrane 24 Well Permeable Supports, Corning). Filters were coated with 100 µl of 300 µg/ml Matrigel dissolved in coating buffer (0.01M Tris pH 8.0, 0.7% NaCl) (Becton-Dickinson Sciences). DMEM (Dulbecco's Modified Eagle's Medium) containing 5% FBS was added to the lower chambers. Cells were pre-treated with heparanase inhibitors for 24 h, detached and added to the upper chambers in media containing the inhibitors. Cells were allowed to invade for 24 h at 37°C in a CO2 incubator and then unmigrated cells were removed from the upper chamber with a cotton swab. The invading cells were fixed, stained with 0.1% crystal violet for 10 min at room temperature, photographed and counted under inverted microscope.
Test compounds were analyzed at fixed concentration for several fields, in duplicates. Activity of test compounds was compared to the reference compound. Activity of most interesting compound was confirmed in a second cell invasion assay. Data were expressed as the percent invasion with respect to cell migration through uncoated insert membrane. (Table 5)

MMP-9 = experiment: Real-Time Quantitative PCR of pro-angiogenic genes in HT1080 cells; format: cell-based, human; details: 24 h, Conc 10.0 uM
Procedure: (§1) To evaluate the effect of heparanase inhibitors on the tumor transcription of genes encoding for proangiogenic factors, such as FGF1/2, VEGF, MMP-9, HSPE-1, the relative mRNA levels were analyzed by quantitative Real-Time Quantitative PCR. To perform the assay, HT1080 (human fibrosarcoma) cells were cultured in complete medium containing 10%FCS (fetal calf serum). Cells were plated in 24-well plates and treated at fixed concentration (i.e., highest non-toxic concentration) of test compounds. After 24 h, cells were detached, collected and total RNA extracted by RNeasy Mini Kit (QIAGEN). Following reverse transcription step, FGF1/2, VEGF, MMP-9, HSPE-1 mRNA levels, were quantified by qPCR using the advanced Universal SYBR Green Supermix (Bio Rad) and ABI PRISM 7900HT Thermal Cycler System (Perkin Elmer), according to the manufacturer's instructions. Appropriate no-RT and non-template controls were included in each 96-well PCR reaction, and dissociation analysis was performed at the end of each run to confirm the specificity of the reaction. Relative levels of RNA were calculated using the ddCt method. Standard curve and sample data were run in duplicate. In the Table a mean value is reported.

FGF-2 = experiment: as above; format: cell-based, human; details: 24 h, Conc 10.0 uM
Procedure: as §1

FGF-1 = experiment: as above; format: cell-based, human; details: 24 h, Conc 10.0 uM
Procedure: as §1

VEGF = experiment: as above; format: cell-based, human; details: 24 h, Conc 10.0 uM
Procedure: as §1

HPSE-1 = experiment: as above; format: cell-based, human; details: 24 h, Conc 10.0 uM
Procedure: To evaluate the effect of heparanase inhibitors on the tumor transcription of genes encoding for proangiogenic factors, such as FGF1/2, VEGF, MMP-9, HSPE-1, the relative mRNA levels were analyzed by quantitative Real-Time Quantitative PCR. To perform the assay, HT1080 (human fibrosarcoma) cells were cultured in complete medium containing 10%FCS (fetal calf serum). Cells were plated in 24-well plates and treated at fixed concentration (i.e., highest non-toxic concentration) of test compounds. After 24 h, cells were detached, collected and total RNA extracted by RNeasy Mini Kit (QIAGEN). Following reverse transcription step, FGF1/2, VEGF, MMP-9, HSPE-1 mRNA levels, were quantified by qPCR using the advanced Universal SYBR Green Supermix (Bio Rad) and ABI PRISM 7900HT Thermal Cycler System (Perkin Elmer), according to the manufacturer's instructions. […] Relative levels of RNA were calculated using the ddCt method. Standard curve and sample data were run in duplicate.

COc1cc(N=Nc2cc(S(=O)(=O)O)cc3cc(S(=O)(=O)O)cc(O)c23)c(C)cc1NC(=O)Nc1cc(C)c(N=Nc2cc(S(=O)(=O)O)cc3cc(S(=O)(=O)O)cc(O)c23)cc1OC [SST0597]
inhibition at 10 µM [1]: > 90% | Gene Expression (% mRNA vs. control) MMP-9 (MMP-9): ∼ 69% | Gene Expression (% mRNA vs. control) FGF-2 (FGF-2): ∼ 82% | Gene Expression (% mRNA vs. control) FGF-1 (FGF-1): ∼ 100% | Gene Expression (% mRNA vs. control) VEGF (VEGF): ∼ 100% | Gene Expression (% mRNA vs. control) HPSE-1 (HPSE-1): ∼ 100%
